{"source": "patent US20260258000A1", "about": "“THYMIDYLATE SYNTHASE INHIBITORS AND USES THEREOF” (University of Florida Research Foundation, Incorporated, priority 2021, published 2026)", "key": {"[1]": {"target": "T1, human thymidylate synthase (hTS) (Homo sapiens, UniProt P04818)", "T1 construct": "6xHis (N); made in house; host or cells: E. coli BL21 (DE3)", "T1 sequence (P04818 whole entry)": "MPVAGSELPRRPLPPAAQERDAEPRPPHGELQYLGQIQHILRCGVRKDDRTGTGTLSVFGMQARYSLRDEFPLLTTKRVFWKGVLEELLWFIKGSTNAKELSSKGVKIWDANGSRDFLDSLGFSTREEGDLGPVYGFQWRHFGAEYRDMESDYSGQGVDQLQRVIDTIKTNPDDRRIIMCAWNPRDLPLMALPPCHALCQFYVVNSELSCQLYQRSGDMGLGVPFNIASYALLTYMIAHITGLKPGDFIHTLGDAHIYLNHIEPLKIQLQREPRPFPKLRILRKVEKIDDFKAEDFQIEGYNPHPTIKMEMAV", "assay": "Tritium based TS catalytic activity assay", "assay_type": "biochemical", "description": "The catalytic activity of TS was determined by measuring the release of [31] from [5-3H]dUMP (ViTrax, VT122) resulting from the conversion of dUMP to dTMP as previously described12,33. […] Reactions were performed in 50 mM KH2PO4 (Sigma Aldrich, P0662) at pH 7.2 using 2 μg of purified human TS. Reactions were performed in a final volume of 200 μL with 100 mM β-mercaptoethanol (Sigma Aldrich, M7522), 40 μM dUMP (Sigma Aldrich, D3876), 100 μM 5,10-mTHF, and the [5-3H]dUMP tracer (ViTrax, VT122) accounting for 0.06% of the final dUMP concentration in the reaction. […] Reactions were initiated by the addition of the dUMP substrate and 5,10-mTHF cofactor, then incubated at 37° C. for 30 minutes. […] Reactions were terminated by the addition of 100 μL of ice-cold 20% trichloroacetic acid (Sigma Aldrich, T6399), then excess [5-31-]dUMP was removed by the addition of 200 μL of an albumin-coated activated charcoal solution. The albumin-coated activated charcoal solution was prepared by mixing 10 g of acid-washed activated dextran coated charcoal (Sigma Aldrich, C6241) with 2.5 g of bovine albumin (Sigma Aldrich, A1933) in 100 mL of H2O. The suspension was incubated at room temperature for 30 minutes and then centrifuged for 30 minutes at 10,000×g. […] For all experiments, positive control reactions were performed with no drug representing 100% TS activity, and negative control reactions were performed with no TS enzyme or no 5,10-mTHF substrate representing 0% TS activity. All assays were performed in biological duplicate and technical duplicate. Results were analyzed using GraphPad Prism 8."}, "[2]": {"system": "MIA PaCa-2 cells", "assay": "Cell viability (MTS) assay, MIA PaCa-2", "assay_type": "cell-based", "settings": "Homo sapiens, MIA PaCa-2, 72 h", "description": "(§1) To prepare lysates, 0.5×10^6 PA NC-1 cells were seeded in 100 mm dishes in 10 ml DMEM High glucose and 24 hours later, 5-FU (Sigma) or 19-S were added at the specified concentrations. Cells were harvested after 72 hours and cell pellets were stored at −80° C. For GI50 determination, 3000 MIA PaCa-2 cells. […] After 72 hours, cell viability was assessed by reduction of MTS ((3-4,5-dimethylthiazol-2-yl)-5-(3-carboxymethoxyphenol)-2-(4-sulfophenyl)-2H-tetrazolium) using Cell Titer 96 R Aqueous One Solution Cell Proliferation Assay Kit (Promega), following manufacturer's recommendations. Chemiluminescent output (integration time 1000 ms) was measured on a SpectraMax M3® (Molecular devices). Data were normalized to max/minutes and plotted in GraphPad Prism for GI50 determination. Chemical synthesis details, including characterization of each compound, can be found in the supporting information document associated with this publication."}, "[3]": {"system": "PANC-1 cells", "assay": "Cell viability (MTS) assay, PANC-1", "assay_type": "cell-based", "settings": "Homo sapiens; PANC-1, 72 hour drug incubation (FIG. 1C)", "description": "as §1"}, "[4]": {"system": "BON cells", "assay": "Cell viability (MTS) assay, BON", "assay_type": "cell-based", "settings": "72 hour drug incubation (FIG. 1C)"}, "[5]": {"target": "T2, human TS (Homo sapiens, UniProt P04818)", "T2 construct": "6xHis (N); made in house; host or cells: E. coli BL21 (DE3)", "T2 sequence (P04818 whole entry)": "as above", "assay": "Competitive drug displacement assay (tritium TS assay)", "assay_type": "biochemical", "settings": "TS pre-incubated with drug", "description": "For these experiments the TS protein was first incubated with each drug, the reaction was then initiated by addition of 5,10-mTHF and dUMP using different concentrations of either 5,10-mTHF or dUMP to change the substrate:drug ratio. If there was competition between one of the substrates and the drug for the same binding site, increasing the substrate concentration will displace more of the pre-bound drug and shift the equilibrium towards the enzyme: substrate complex, thus allowing the conversion of dUMP to proceed (FIG. 5A).\nThe competitive drug displacement assay utilized the standard reaction conditions for the tritium based TS catalytic activity assay including 40 μM dUMP (Sigma Aldrich, D3876) with the [5-3H]dUMP tracer (ViTrax, VT122) accounting for 0.06% of the final dUMP concentration and 100 μM 5,10-methylene tetrahydrofolate (defined as 1× dUMP and 1×5,10-mTHF). Concentrations of total dUMP and 5,10-mTHF were then changed relative to these 1× concentrations to concisely indicate the changes in either the substrate or cofactor concentration. […] The remaining components in each 200 μL reaction were consistent in all reactions and included 2 μg of purified human TS in 50 mM KH2PO4 (Sigma Aldrich, P0662) and 100 mM β-mercaptoethanol (Sigma Aldrich, M7522)."}}, "note": "Entries after “also recorded” stand apart in the source; their conditions may differ."}
{"smiles": "CCc1nc(N)nc(N)c1-c1ccc(N(C)Cc2ccccc2)c([N+](=O)[O-])c1", "note": "[Compound 19-S]", "values": [{"measurement": "inhibition of TS catalytic activity, 19-S series library screen", "setting": "[1]; 250 uM (FIG. 4A)", "value": "inhibited TS activity"}, {"measurement": "TS inhibition at decreasing drug concentrations", "setting": "[1]; compared with Pem and MTX controls (FIG. 4C)", "value": "greater TS inhibition than both MTX and Pen; also recorded: both strong TS and DHFR inhibition"}, {"measurement": "TS activity (conversion of dUMP)", "setting": "[1]; drug 250 μM, 10 μg/mL bacterially expressed TS protein (FIG. 1B)", "value": "comparable TS inhibition as seen with the 5-FU metabolite FdUrd"}, {"measurement": "GI50", "setting": "[2]; MIA PaCa-2, 72-hour treatment, highest concentration 350 μM (FIG. 4E)", "value": "200 to 840", "unit": "nM"}, {"measurement": "GI50", "setting": "[2]; MIA PaCa-2, 72 hour drug incubation (FIG. 1C)", "value": 1260, "unit": "nM"}, {"measurement": "GI50", "setting": "[3]", "value": 8350, "unit": "nM"}, {"measurement": "IC50", "setting": "[4]", "value": 120, "unit": "nM"}, {"measurement": "dUMP conversion with increasing 5,10-mTHF concentration (drug displacement)", "setting": "[5]; 5,10-mTHF up to 5×", "value": "increased the amount of dUMP conversion"}, {"measurement": "dUMP conversion with increasing dUMP concentration (drug displacement)", "setting": "[5]; dUMP up to 5×", "value": "the amount of dUMP conversion did not increase"}]}
